According to the supplement of paper PMC10307832:

What was measured:
Test in all cases: relative viability (nuclei count vs DMSO), 5 days (fraction); higher = more cells survive
4EGI-1 + Navitoclax = compound: O=C(O)C(Cc1ccccc1[N+](=O)[O-])=NNc1nc(-c2ccc(Cl)c(Cl)c2)cs1 (mixture of isomers) [4EGI-1] + CC1(C)CCC(c2ccc(Cl)cc2)=C(CN2CCN(c3ccc(C(=O)NS(=O)(=O)c4ccc(N[C@H](CCN5CCOCC5)CSc5ccccc5)c(S(=O)(=O)C(F)(F)F)c4)cc3)CC2)C1 [Navitoclax] (partner 0.5 µM)
Method in brief: (§1)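 Medians of duplicate plates are given as relative viability. That measure is the nuclei count in treated wells divided by the count in vehicle wells. Counts were taken on 4× images of lung cancer cell lines in 1536-well plates, 5 days after pin-tool dosing the day after seeding with one drug alone or a fixed anchor-drug dose plus five library-drug doses (not always all listed) in √10 steps.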

XMD8-85 + Trametinib = compound: CN1CCN(CC1)C2=CC(=C(C=C2)NC3=NC=C4C(=N3)N(C5=CC=CC=C5C(=O)N4C)C)OC [XMD8-85] + CC(=O)Nc1cccc(-n2c(=O)n(C3CC3)c(=O)c3c(Nc4ccc(I)cc4F)n(C)c(=O)c(C)c32)c1 [Trametinib] (partner 0.02 µM)
Method in brief: as §1

XMD8-85 + Decitabine = compound: CN1CCN(CC1)C2=CC(=C(C=C2)NC3=NC=C4C(=N3)N(C5=CC=CC=C5C(=O)N4C)C)OC [XMD8-85] + Nc1ncn([C@H]2C[C@H](O)[C@@H](CO)O2)c(=O)n1 [Decitabine] (partner 2 µM)
Method in brief: as §1

XMD8-85 + Phenformin = compound: CN1CCN(CC1)C2=CC(=C(C=C2)NC3=NC=C4C(=N3)N(C5=CC=CC=C5C(=O)N4C)C)OC [XMD8-85] + N=C(N)NC(=N)NCCc1ccccc1 [Phenformin] (partner 250 µM)
Method in brief: as §1

Cell Line | relative viability (4EGI-1 + Navitoclax; first compound 0.5 µM) | relative viability (4EGI-1 + Navitoclax; first compound 1.581 µM) | relative viability (4EGI-1 + Navitoclax; first compound 5 µM) | relative viability (4EGI-1 + Navitoclax; first compound 15.81 µM) | relative viability (4EGI-1 + Navitoclax; first compound 50 µM) | relative viability (XMD8-85 + Trametinib; first compound 0.08 µM) | relative viability (XMD8-85 + Trametinib; first compound 0.253 µM) | relative viability (XMD8-85 + Trametinib; first compound 0.8 µM) | relative viability (XMD8-85 + Trametinib; first compound 2.53 µM) | relative viability (XMD8-85 + Trametinib; first compound 8 µM) | relative viability (XMD8-85 + Decitabine; first compound 0.08 µM) | relative viability (XMD8-85 + Decitabine; first compound 0.253 µM) | relative viability (XMD8-85 + Decitabine; first compound 0.8 µM) | relative viability (XMD8-85 + Decitabine; first compound 2.53 µM) | relative viability (XMD8-85 + Decitabine; first compound 8 µM) | relative viability (XMD8-85 + Phenformin; first compound 0.08 µM) | relative viability (XMD8-85 + Phenformin; first compound 0.253 µM) | relative viability (XMD8-85 + Phenformin; first compound 0.8 µM) | relative viability (XMD8-85 + Phenformin; first compound 2.53 µM) | relative viability (XMD8-85 + Phenformin; first compound 8 µM)
HCC-78 | 0.96 | 0.492 | 0.753 | 0.829 | 0.802 | 1.14 | 1.02 | 0.735 | 0.536 | 0.402 | 0.672 | 0.694 | 0.736 | 0.671 | 0.675 | 0.705 | 0.84 | 0.695 | 0.665 | 0.46
HCC-366 | 1.18 | 0.954 | 1.14 | 1.15 | 1.01 | 0.33 | 0.35 | 0.467 | 0.324 | 0.307 | 0.342 | 0.302 | 0.375 | 0.511 | 0.393 | 0.598 | 0.611 | 0.617 | 0.63 | 0.649
HCC-827 | 1.04 | 0.936 | 0.938 | – | 0.789 | 0.55 | 0.461 | 0.528 | 0.512 | 0.496 | 0.389 | 0.356 | 0.316 | 0.374 | 0.369 | 0.389 | – | – | 0.49 | 0.45
HOP-62 | 1.11 | – | 1.02 | 0.995 | 1.06 | 0.368 | 0.378 | 0.34 | 0.339 | 0.129 | 0.235 | 0.199 | 0.186 | 0.228 | 0.236 | 0.595 | 0.535 | 0.659 | 0.683 | 0.469
IA-LM | 0.889 | 0.751 | 0.444 | 0.112 | 0.0676 | – | – | – | – | – | – | – | – | – | – | – | – | – | – | –
LC-2-ad | 0.536 | 0.486 | 0.398 | 0.25 | 0.0791 | 0.93 | 0.914 | 0.955 | 0.997 | 0.458 | 0.734 | 0.774 | 0.811 | 0.772 | 0.514 | 0.592 | 0.55 | 0.611 | 0.595 | –
LCLC-97TM1 | 0.57 | – | 0.408 | 0.374 | 0.267 | 0.178 | 0.174 | 0.218 | 0.153 | 0.116 | 0.222 | 0.206 | 0.204 | 0.284 | 0.195 | 0.412 | 0.412 | 0.451 | 0.471 | 0.45
LCLC-103H | – | – | – | – | – | 0.728 | 0.637 | 0.683 | 0.676 | 0.522 | 0.789 | 0.763 | 0.713 | 0.688 | 0.605 | 0.329 | 0.34 | 0.36 | 0.372 | 0.303
LK-2 | 1.18 | – | 1.16 | 1.14 | 0.877 | 0.858 | 0.611 | 0.538 | 0.448 | 0.312 | 0.255 | 0.295 | 0.268 | 0.246 | 0.232 | – | 0.279 | 0.377 | 0.374 | 0.213
LOU-NH91 | 0.91 | – | 0.741 | 0.367 | 0.526 | 0.792 | 0.807 | 0.755 | 0.785 | 0.621 | 0.797 | 0.852 | 0.793 | 0.821 | 0.646 | 0.661 | 0.774 | – | 0.835 | 0.523
LU99A | 0.765 | – | 0.87 | 0.986 | 0.428 | 0.51 | 0.538 | 0.55 | 0.53 | 0.433 | 0.919 | 0.86 | 1.08 | 0.769 | 0.694 | 0.816 | 0.881 | 0.858 | 0.936 | 0.701
NCI-H358 | – | – | – | – | – | 0.111 | 0.139 | 0.128 | 0.11 | 0.132 | 0.219 | 0.243 | 0.229 | 0.234 | 0.198 | 0.301 | 0.314 | 0.312 | 0.385 | 0.167
NCI-H522 | – | – | – | – | – | 0.821 | 0.653 | 0.739 | 0.698 | 0.537 | 0.739 | 0.669 | 0.615 | 0.782 | 0.635 | 0.664 | 0.697 | 0.338 | 0.367 | 0.67
NCI-H650 | – | – | – | – | – | 0.904 | 1 | 0.977 | 0.94 | 0.601 | 0.336 | 0.3 | 0.354 | 0.309 | 0.324 | – | 0.44 | 0.439 | 0.436 | 0.306
NCI-H661 | – | – | – | – | – | 0.548 | 0.536 | 0.583 | 0.653 | 0.43 | 0.589 | 0.552 | 0.629 | 0.62 | 0.553 | 0.292 | 0.287 | 0.278 | 0.276 | 0.287
NCI-H1299 | 1.1 | 1.04 | 1.04 | 0.986 | 1.08 | – | – | – | – | – | – | – | – | – | – | – | – | – | – | –
NCI-H1563 | – | – | – | – | – | – | – | – | – | – | – | – | – | – | – | 0.65 | 0.609 | 0.63 | – | 0.615
NCI-H1623 | – | – | – | – | – | – | – | – | – | – | – | – | – | – | – | 0.611 | 0.584 | 0.578 | 0.555 | –
NCI-H1648 | – | – | – | – | – | 0.493 | 0.416 | 0.397 | 0.337 | 0.354 | 0.478 | 0.447 | 0.635 | 0.638 | 0.561 | – | – | – | – | –
NCI-H1703 | 1.54 | 1.06 | 1.6 | 1.19 | 0.427 | – | – | – | – | – | – | – | – | – | – | – | – | – | – | –
NCI-H2228 | 1.08 | 1.08 | 0.99 | 0.617 | 0.931 | 0.354 | 0.57 | 0.379 | 0.387 | 0.181 | – | – | – | – | – | 0.235 | 0.293 | 0.34 | 0.334 | 0.261
NCI-H2342 | – | – | – | – | – | 0.747 | 0.807 | 0.859 | 0.922 | 0.991 | 0.7 | 0.709 | 0.677 | 0.777 | 0.867 | 0.646 | 0.56 | 0.682 | 0.608 | 0.599
SW 900 | – | – | – | – | – | 0.813 | 0.746 | 0.935 | – | 0.759 | 0.505 | 0.45 | 0.406 | 0.458 | 0.506 | 0.448 | 0.523 | 0.675 | 0.554 | 0.22
